Measurements: patent US20250171417A1, “HETEROCYCLIC DERIVATIVE, AND COMPOSITION AND PHARMACEUTICAL USE THEREOF” (Xizang Haisco Pharmaceutical Co., Ltd., priority 2021, published 2025)

tested on: Prostate cancer cells 22RV1; assay: Experiment on inhibiting 22RV1 cell proliferation (CellTiter-Glo, 7 days); type: cell-based; settings: Homo sapiens, 168 h, 22RV1 cells, 7 days incubation, cells with nM printed beside the value, read-out: IC50 values for inhibition of 22RVI cells
Protocol: Prostate cancer cells 22RV1 were purchased from ATCC, the cell medium was RPMI 1640+10% FBS, and the cells were cultured in an incubator at 37° C. under 5% CO2. On day 1, the cells in the exponential growth phase were collected. With a 1% css-FBS phenol red-free medium, the cell suspension was adjusted to a corresponding concentration, plated at 2000 cells/well and incubated overnight. On day 2, compounds at different concentrations were added, and the plate was placed in the incubator and incubated for further 7 days. After the incubation was completed, according to operation instructions for a CellTiter-Glo kit (Promega, G7573), 50 μL of CellTiter-Glo reagents, which were already pre-melted and equilibrated to room temperature, were added to each well, and the mixtures were uniformly mixed for 2 min using a microplate shaker. The plate was placed at room temperature for 10 min. and then […] signal values were measured using a microplate reader (PHERAstar FSX). The results were processed according to formula (I), the inhibition rate of the compound at different concentrations was calculated, and the IC50 value of the compound with an inhibition rate of 50% was calculated using origin9.2 software with DoseResp function, wherein RLUcompound was the readout of the treated group, and RLUcontrol was the average value of the DMSO vehicle control group.

Structure (SMILES) | IC50
N#Cc1ccc(NC(=O)C2(n3cc(C#CC4CN(c5ccc6c(c5)C(=O)N(C5CCC(=O)NC5=O)C6=O)C4)cn3)CCC2)c2ccccc12 (stereo not shown) [Compound 34, N-(4-cyanonaphthalen-1-yl)-1-(4-((1-(2-(2,6-dioxopiperidin-3-yl)-1,3-dioxoisoindolin-5-yl)azetidin-3-yl)ethynyl)-1H-pyrazol-1-yl)cyclobutane-1-carboxamide] | < 100 nM
CCC(CC)(C(=O)Nc1ccc(C#N)c(C(F)(F)F)c1)n1cc(C#CC2CN(c3ccc4c(c3)C(=O)N(C3CCC(=O)NC3=O)C4=O)C2)cn1 (stereo not shown) [Compound 41, N-(4-cyano-3-(trifluoromethyl)phenyl)-2-(4-((1-(2-(2,6-dioxopiperidin-3-yl)-1,3-dioxoisoindolin-5-yl)azetidin-3-yl)ethynyl)-1H-pyrazol-1-yl)-2-ethylbutanamide] | < 50 nM
N#Cc1ccc(NC(=O)C2(n3cc(C#CC4CN(c5ccc6c(c5)C(=O)N(C5CCC(=O)NC5=O)C6=O)C4)cn3)CCCC2)cc1C(F)(F)F (stereo not shown) [Compound 48, N-(4-cyano-3-(trifluoromethyl)phenyl)-1-(4-((1-(2-(2,6-dioxopiperidin-3-yl)-1,3-dioxoisoindolin-5-yl)azetidin-3-yl)ethynyl)-1H-pyrazol-1-yl)cyclopentane-1-carboxamide] | < 100 nM

The remaining lines, values ahead:

IC50 | Structure (SMILES)
< 50 nM | O=C1CCC(N2C(=O)c3ccc(N4CC(C#Cc5cnn(C6(C(=O)Nc7ccc(C(F)(F)F)cc7C7CC7)CCC6)c5)C4)cc3C2=O)C(=O)N1 (stereo not shown) [Compound 35, N-(2-cyclopropyl-4-(trifluoromethyl)phenyl)-1-(4-((1-(2-(2,6-dioxopiperidin-3-yl)-1,3-dioxoisoindolin-5-yl)azetidin-3-yl)ethynyl)-1H-pyrazol-1-yl)cyclobutane-1-carboxamide]
< 100 nM | N#Cc1ccc(NC(=O)C2(n3cc(C#CC4CN(c5ccc6c(c5)C(=O)N(C5CCC(=O)NC5=O)C6=O)C4)cn3)CCC2)cc1C1CC1 (stereo not shown) [Compound 40, N-(4-cyano-3-cyclopropylphenyl)-1-(4-((1-(2-(2,6-dioxopiperidin-3-yl)-1,3-dioxoisoindolin-5-yl)azetidin-3-yl)ethynyl)-1H-pyrazol-1-yl)cyclobutane-1-carboxamide]
< 50 nM | N#Cc1ccc(NC(=O)C2(n3cc(C#CC4CN(c5ccc6c(c5)C(=O)N(C5CCC(=O)NC5=O)C6=O)C4)cn3)CCC2)c(C2CC2)c1 (stereo not shown) [Compound 45, N-(4-cyano-2-cyclopropylphenyl)-1-(4-((1-(2-(2,6-dioxopiperidin-3-yl)-1,3-dioxoisoindolin-5-yl)azetidin-3-yl)ethynyl)-1H-pyrazol-1-yl)cyclobutane-1-carboxamide]
< 100 nM | N#Cc1ccc(NC(=O)C2(n3cc(C#CC4CN(c5ccc6c(c5)C(=O)N(C5CCC(=O)NC5=O)C6=O)C4)cn3)CCC2)cc1N1CCCC1 (stereo not shown) [Compound 50, N-(4-cyano-3-(pyrrolidin-1-yl)phenyl)-1-(4-((1-(2-(2,6-dioxopiperidin-3-yl)-1,3-dioxoisoindolin-5-yl)azetidin-3-yl)ethynyl)-1H-pyrazol-1-yl)cyclobutane-1-carboxamide]
< 50 nM | CC(C)(C(=O)Nc1ccc(C(F)(F)F)cc1-n1cccn1)n1cc(C#CC2CN(c3ccc4c(c3)C(=O)N(C3CCC(=O)NC3=O)C4=O)C2)cn1 (stereo not shown) [Compound 51, N-(2-(1H-pyrazol-1-yl)-4-(trifluoromethyl)phenyl)-2-(4-((1-(2-(2,6-dioxopiperidin-3-yl)-1,3-dioxoisoindolin-5-yl)azetidin-3-yl)ethynyl)-1H-pyrazol-1-yl)-2-methylpropanamide]

same assay, conditions: Homo sapiens, 168 h, 22RV1 cells, 7 days incubation, cells without a unit of their own (μM), read-out: IC50 values for inhibition of 22RVI cells

Structure (SMILES) | IC50
CC(C)(C(=O)Nc1ccc(C#N)c(C(F)(F)F)c1)n1cc(C#CC2CN(c3cc4c(cc3F)C(=O)N(C3CCC(=O)NC3=O)C4=O)C2)cn1 (stereo not shown) [Compound 3] | < 1000 nM
Cc1cc(NC(=O)C(C)(C)n2cc(C#CC3CN(c4ccc5c(c4)C(=O)N(C4CCC(=O)NC4=O)C5=O)C3)cn2)ccc1Cl (stereo not shown) [Compound 16, N-(4-chloro-3-methylphenyl)-2-(4-((1-(2-(2,6-dioxopiperidin-3-yl)-1,3-dioxoisoindolin-5-yl)azetidin-3-yl)ethynyl)-1H-pyrazol-1-yl)-2-methylpropanamide] | < 1000 nM
CC(C)(C(=O)Nc1ccc(C(F)(F)F)c(Cl)c1)n1cc(C#CC2CN(c3ccc4c(c3)C(=O)N(C3CCC(=O)NC3=O)C4=O)C2)cn1 (stereo not shown) [Compound 17, N-(3-chloro-4-(trifluoromethyl)phenyl)-2-(4-((1-(2-(2,6-dioxopiperidin-3-yl)-1,3-dioxoisoindolin-5-yl)azetidin-3-yl)ethynyl)-1H-pyrazol-1-yl)-2-methylpropanamide] | < 1000 nM
Cc1ccc(NC(=O)C(C)(C)n2cc(C#CC3CN(c4ccc5c(c4)C(=O)N(C4CCC(=O)NC4=O)C5=O)C3)cn2)cc1Cl (stereo not shown) [Compound 18, N-(3-chloro-4-methylphenyl)-2-(4-((1-(2-(2,6-dioxopiperidin-3-yl)-1,3-dioxoisoindolin-5-yl)azetidin-3-yl)ethynyl)-1H-pyrazol-1-yl)-2-methylpropanamide] | < 1000 nM
CC(C)(C(=O)Nc1cc(Cl)c(C(F)(F)F)c(Cl)c1)n1cc(C#CC2CN(c3ccc4c(c3)C(=O)N(C3CCC(=O)NC3=O)C4=O)C2)cn1 (stereo not shown) [Compound 22, N-(3,5-dichloro-4-(trifluoromethyl)phenyl)-2-(4-((1-(2-(2,6-dioxopiperidin-3-yl)-1,3-dioxoisoindolin-5-yl)azetidin-3-yl)ethynyl)-1H-pyrazol-1-yl)-2-methylpropanamide] | < 1000 nM
COc1cc(NC(=O)C(C)(C)n2cc(C#CC3CN(c4ccc5c(c4)C(=O)N(C4CCC(=O)NC4=O)C5=O)C3)cn2)ccc1C#N (stereo not shown) [Compound 23, N-(4-cyano-3-methoxyphenyl)-2-(4-((1-(2-(2,6-dioxopiperidin-3-yl)-1,3-dioxoisoindolin-5-yl)azetidin-3-yl)ethynyl)-1H-pyrazol-1-yl)-2-methylpropanamide] | < 1000 nM
CC(C)(C(=O)Nc1ccc([N+](=O)[O-])c(Cl)c1)n1cc(C#CC2CN(c3ccc4c(c3)C(=O)N(C3CCC(=O)NC3=O)C4=O)C2)cn1 (stereo not shown) [Compound 25, N-(3-chloro-4-nitrophenyl)-2-(4-((1-(2-(2,6-dioxopiperidin-3-yl)-1,3-dioxoisoindolin-5-yl)azetidin-3-yl)ethynyl)-1H-pyrazol-1-yl)-2-methylpropanamide] | < 1000 nM
CC(C)(C(=O)Nc1ccc([N+](=O)[O-])c(C(F)(F)F)c1)n1cc(C#CC2CN(c3ccc4c(c3)C(=O)N(C3CCC(=O)NC3=O)C4=O)C2)cn1 (stereo not shown) [Compound 26, 2-(4-((1-(2-(2,6-dioxopiperidin-3-yl)-1,3-dioxoisoindolin-5-yl)azetidin-3-yl)ethynyl)-1H-pyrazol-1-yl)-2-methyl-N-(4-nitro-3-(trifluoromethyl)phenyl)propanamide] | < 1000 nM
CC(C)(C(=O)Nc1ccc(C#N)cc1F)n1cc(C#CC2CN(c3ccc4c(c3)C(=O)N(C3CCC(=O)NC3=O)C4=O)C2)cn1 (stereo not shown) [Compound 27, N-(4-cyano-2-fluorophenyl)-2-(4-((1-(2-(2,6-dioxopiperidin-3-yl)-1,3-dioxoisoindolin-5-yl)azetidin-3-yl)ethynyl)-1H-pyrazol-1-yl)-2-methylpropanamide] | < 1000 nM
CC(C)(C(=O)Nc1ccc(C#N)c(F)c1)n1cc(C#CC2CN(c3ccc4c(c3)C(=O)N(C3CCC(=O)NC3=O)C4=O)C2)cn1 (stereo not shown) [Compound 32, N-(4-cyano-3-fluorophenyl)-2-(4-((1-(2-(2,6-dioxopiperidin-3-yl)-1,3-dioxoisoindolin-5-yl)azetidin-3-yl)ethynyl)-1H-pyrazol-1-yl)-2-methylpropanamide] | < 1000 nM
CCC(C)(C(=O)Nc1ccc(C#N)c(C(F)(F)F)c1)n1cc(C#CC2CN(c3ccc4c(c3)C(=O)N(C3CCC(=O)NC3=O)C4=O)C2)cn1 (stereo not shown) [Compound 46, N-(4-cyano-3-(trifluoromethyl)phenyl)-2-(4-((1-(2-(2,6-dioxopiperidin-3-yl)-1,3-dioxoisoindolin-S-yl)azetidin-3-yl)ethynyl)-1H-pyrazol-1-yl)-2-methylbutanamide] | < 1000 nM

More lines, now with the values ahead:

IC50 | Structure (SMILES)
< 1000 nM | CC(C)(C(=O)Nc1ccc(C(F)(F)F)cc1C#N)n1cc(C#CC2CN(c3ccc4c(c3)C(=O)N(C3CCC(=O)NC3=O)C4=O)C2)cn1 (stereo not shown) [Compound 42, N-(2-cyano-4-(trifluoromethyl)phenyl)-2-(4-((1-(2-(2,6-dioxopiperidin-3-yl)-1,3-dioxoisoindolin-5-yl)azetidin-3-yl)ethynyl)-1H-pyrazol-1-yl)-2-methylpropanamide]
< 1000 nM | CC(C)(C(=O)Nc1ccc(C#N)c2ncccc12)n1cc(C#CC2CN(c3ccc4c(c3)C(=O)N(C3CCC(=O)NC3=O)C4=O)C2)cn1 (stereo not shown) [Compound 43, N-(8-cyanoquinolin-5-yl)-2-(4-((1-(2-(2,6-dioxopiperidin-3-yl)-1,3-dioxoisoindolin-5-yl)azetidin-3-yl)ethynyl)-1H-pyrazol-1-yl)-2-methylpropanamide]
< 1000 nM | CC(C)(C(=O)Nc1ccc(C#N)cc1C(F)(F)F)n1cc(C#CC2CN(c3ccc4c(c3)C(=O)N(C3CCC(=O)NC3=O)C4=O)C2)cn1 (stereo not shown) [Compound 44, N-(4-cyano-2-(trifluoromethyl)phenyl)-2-(4-((1-(2-(2,6-dioxopiperidin-3-yl)-1,3-dioxoisoindolin-5-yl)azetidin-3-yl)ethynyl)-1H-pyrazol-1-yl)-2-methylpropanamide]
